Results taken from patent US9687479B2, “Multisubstituted aromatic compounds as serine protease inhibitors” (VERSEON CORPORATION, priority 2013, dated 2017).

Legend:
Human KLKB1 = Human KLKB1 (Homo sapiens (Human), UniProt P03952); assay: KLKB1 kallikrein activity inhibition assay (chromogenic substrate S-2302); type: biochemical; conditions: Table B
Outline: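 Enzyme at a final 3 nM was assayed in 0.05 M Tris pH 7.4, 0.01 M NaCl and 0.2% PEG-8000 at room temperature, with compounds as ten-point threefold dilutions.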

Human thrombin = Human thrombin (Homo sapiens (Human), UniProt P00734); assay: Thrombin protease activity inhibition assay (chromogenic substrate S-2238); type: biochemical; conditions: 3 nM thrombin, 125 μM S-2238, 10 min pre-incubation, RT
Outline: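 Ten-point, three-fold serial dilutions of compound tested against 3 nM enzyme at RT in Tris buffer (0.05 M, pH 7.4) with 0.015 M NaCl and 0.01% PEG-8000.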

Chain of Human KLKB1 (P03952 391-638 limits assumed): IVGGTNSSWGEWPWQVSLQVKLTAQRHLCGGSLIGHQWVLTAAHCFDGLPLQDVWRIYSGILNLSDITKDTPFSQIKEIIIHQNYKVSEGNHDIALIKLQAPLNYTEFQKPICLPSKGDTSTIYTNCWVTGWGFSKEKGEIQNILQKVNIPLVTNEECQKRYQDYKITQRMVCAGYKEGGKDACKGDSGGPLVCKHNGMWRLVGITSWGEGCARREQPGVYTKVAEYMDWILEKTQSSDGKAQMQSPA
Chain of Human KLKB1 (P03952 20-390 partner limits assumed): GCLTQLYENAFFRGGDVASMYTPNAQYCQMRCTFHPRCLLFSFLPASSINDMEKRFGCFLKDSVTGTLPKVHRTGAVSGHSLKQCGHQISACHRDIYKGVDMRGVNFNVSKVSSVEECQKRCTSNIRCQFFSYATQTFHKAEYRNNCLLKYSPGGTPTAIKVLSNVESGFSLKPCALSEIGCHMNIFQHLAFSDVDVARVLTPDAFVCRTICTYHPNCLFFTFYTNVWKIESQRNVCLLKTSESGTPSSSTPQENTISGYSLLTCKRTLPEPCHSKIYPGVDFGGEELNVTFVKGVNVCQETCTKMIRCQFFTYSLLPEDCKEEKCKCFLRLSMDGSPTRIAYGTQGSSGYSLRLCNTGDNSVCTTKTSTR

IC50 (Human KLKB1)	IC50 (Human thrombin)	Compound
10 to 100 µM	10 to 100 µM	O=c1c(-c2cc(NCc3ccc(Cl)s3)n[nH]2)cccn1CCc1ccccn1 [Cmpd 235, 3-(5-[(5-chlorothiophen-2-yl)methyl]amino-1H-pyrazol-3-yl)-1-[2-(pyridin-2-yl)ethyl]-1,2-dihydropyridin-2-one]
10 to 100 µM	< 0.1 µM	O=C(c1cccs1)n1nc(-c2cccn(Cc3ccoc3)c2=O)cc1NCc1ccc(Cl)s1 [Cmpd 184, 3-(5-[(5-chlorothiophen-2-yl)methyl]amino-1-[(thiophen-2-yl)carbonyl]-1H-pyrazol-3-yl)-1-(furan-3-ylmethyl)-1,2-dihydropyridin-2-one]
0.1 to 1 µM	< 0.1 µM	O=C(c1ccccc1Cl)n1nc(-c2cccn(Cc3ccoc3)c2=O)cc1NCc1ccc(Cl)s1 [Cmpd 244, 3-1-[(2-chlorophenyl)carbonyl]-5-[(5-chlorothiophen-2-yl)methyl]amino-1H-pyrazol-3-yl-1-(furan-3-ylmethyl)-1,2-dihydropyridin-2-one]
0.1 to 1 µM	< 0.1 µM	COCCn1cccc(-c2cc(NCc3ccc(Cl)s3)n(C(=O)c3ccsc3)n2)c1=O [Cmpd 194, 3-(5-[(5-chlorothiophen-2-yl)methyl]amino-1-[(thiophen-3-yl)carbonyl]-1H-pyrazol-3-yl)-1-(2-methoxyethyl)-1,2-dihydropyridin-2-one]
> 100 µM	1 to 10 µM	O=c1c(-c2cc(NCc3ccc(Cl)s3)[nH]n2)cccn1Cc1ccccn1 [Cmpd 227, 3-(5-[(5-chlorothiophen-2-yl)methyl]amino-1H-pyrazol-3-yl)-1-(pyridin-2-ylmethyl)-1,2-dihydropyridin-2-one]
0.1 to 1 µM	< 0.1 µM	O=C(c1ccc(N2CCOCC2)cc1)n1nc(-c2cccn(CCN3CCOCC3)c2=O)cc1NCc1ccc(Cl)s1 [Cmpd 218, 3-(5-[(5-chlorothiophen-2-yl)methyl]amino-1-[4-(morpholin-4-yl)phenyl]carbonyl-1H-pyrazol-3-yl)-1-[2-(morpholin-4-yl)ethyl]-1,2-dihydropyridin-2-one]

The remaining lines, values behind:

Compound	IC50 (Human KLKB1)	IC50 (Human thrombin)
O=C(c1ccoc1)n1nc(-c2cccn(Cc3ccccc3)c2=O)cc1NCc1ccc(Cl)s1 [Cmpd 50, 1-benzyl-3-(5-[(5-chlorothiophen-2-yl)methyl]amino-1-[(furan-3-yl)carbonyl]-1H-pyrazol-3-yl)-1,2-dihydropyridin-2-one]	10 to 100 µM	< 0.1 µM
COCC(C)(C)C(=O)n1nc(-c2cccn(Cc3ccncc3)c2=O)cc1NCc1ccc(Cl)s1 [Cmpd 103, 3-(5-[(5-chlorothiophen-2-yl)methyl]amino-1-(3-methoxy-2,2-dimethylpropanoyl)-1H-pyrazol-3-yl)-1-(pyridin-4-ylmethyl)-1,2-dihydropyridin-2-one]	10 to 100 µM	< 0.1 µM
O=C(c1ccc(N2CCOCC2)cc1)n1nc(-c2cccn(Cc3ccccc3)c2=O)cc1NCc1ccc(Cl)s1 [Cmpd 53, 1-benzyl-3-(5-[(5-chlorothiophen-2-yl)methyl]amino-1-[4-(morpholin-4-yl)phenyl]carbonyl-1H-pyrazol-3-yl)-1,2-dihydropyridin-2-one]	> 100 µM	< 0.1 µM
COCCn1cccc(-c2cc(NCc3ccc(Cl)s3)n(C(=O)C(C)(C)CO)n2)c1=O [Cmpd 92, 3-(5-[(5-chlorothiophen-2-yl)methyl]amino-1-(3-hydroxy-2,2-dimethylpropanoyl)-1H-pyrazol-3-yl)-1-(2-methoxyethyl)-1,2-dihydropyridin-2-one]	10 to 100 µM	< 0.1 µM
COCC(C)(C)C(=O)n1nc(-c2cccn(Cc3ccsc3)c2=O)cc1NCc1ccc(Cl)s1 [Cmpd 106, 3-(5-[(5-chlorothiophen-2-yl)methyl]amino-1-(3-methoxy-2,2-dimethylpropanoyl)-1H-pyrazol-3-yl)-1-(thiophen-3-ylmethyl)-1,2-dihydropyridin-2-one]	> 100 µM	< 0.1 µM
COc1ccc(C(=O)n2nc(-c3cccn(CCN4CCOCC4)c3=O)cc2NCc2ccc(Cl)s2)c(OC)c1 [Cmpd 131, 3-(5-[(5-chlorothiophen-2-yl)methyl]amino-1-[(2,4-dimethoxyphenyl)carbonyl]-1H-pyrazol-3-yl)-1-[2-(morpholin-4-yl)ethyl]-1,2-dihydropyridin-2-one]	0.1 to 1 µM	< 0.1 µM
COCCn1cccc(-c2cc(NCc3ccc(Cl)s3)n(C(=O)c3cccc4c3OCCO4)n2)c1=O [Cmpd 109, 3-(5-[(5-chlorothiophen-2-yl)methyl]amino-1-[(2,3-dihydro-1,4-benzodioxin-5-yl)carbonyl]-1H-pyrazol-3-yl)-1-(2-methoxyethyl)-1,2-dihydropyridin-2-one]	1 to 10 µM	< 0.1 µM
COCC(C)(C)C(=O)n1nc(-c2cccn(Cc3cccnc3)c2=O)cc1NCc1ccc(Cl)s1 [Cmpd 102, 3-(5-[(5-chlorothiophen-2-yl)methyl]amino-1-(3-methoxy-2,2-dimethylpropanoyl)-1H-pyrazol-3-yl)-1-(pyridin-3-ylmethyl)-1,2-dihydropyridin-2-one]	10 to 100 µM	< 0.1 µM
COc1ccc(C(=O)n2nc(-c3cccn(Cc4ccoc4)c3=O)cc2NCc2ccc(Cl)s2)c(OC)c1 [Cmpd 123, 3-(5-[(5-chlorothiophen-2-yl)methyl]amino-1-[(2,4-dimethoxyphenyl)carbonyl]-1H-pyrazol-3-yl)-1-(furan-3-ylmethyl)-1,2-dihydropyridin-2-one]	10 to 100 µM	< 0.1 µM
COCC(C)(C)C(=O)n1nc(-c2cccn(Cc3cccs3)c2=O)cc1NCc1ccc(Cl)s1 [Cmpd 105, 3-(5-[(5-chlorothiophen-2-yl)methyl]amino-1-(3-methoxy-2,2-dimethylpropanoyl)-1H-pyrazol-3-yl)-1-(thiophen-2-ylmethyl)-1,2-dihydropyridin-2-one]	> 100 µM	< 0.1 µM
COCCn1cccc(-c2cc(NCc3ccc(Cl)s3)n(C(=O)c3ccco3)n2)c1=O [Cmpd 160, 3-(5-[(5-chlorothiophen-2-yl)methyl]amino-1-[(furan-2-yl)carbonyl]-1H-pyrazol-3-yl)-1-(2-methoxyethyl)-1,2-dihydropyridin-2-one]	0.1 to 1 µM	> 100 µM
COCCn1cccc(-c2cc(NCc3ccc(Cl)s3)n(C(=O)c3cccs3)n2)c1=O [Cmpd 182, 3-(5-[(5-chlorothiophen-2-yl)methyl]amino-1-[(thiophen-2-yl)carbonyl]-1H-pyrazol-3-yl)-1-(2-methoxyethyl)-1,2-dihydropyridin-2-one]	1 to 10 µM	< 0.1 µM
COCCn1cccc(-c2cc(NCc3ccc(Cl)s3)n(C(=O)c3ccccc3)n2)c1=O [Cmpd 62, 3-(1-benzoyl-5-[(5-chlorothiophen-2-yl)methyl]amino-1H-pyrazol-3-yl)-1-(2-methoxyethyl)-1,2-dihydropyridin-2-one]	1 to 10 µM	< 0.1 µM
O=C(c1ccco1)n1nc(-c2cccn(Cc3ccccc3)c2=O)cc1NCc1ccc(Cl)s1 [Cmpd 49, 1-benzyl-3-(5-[(5-chlorothiophen-2-yl)methyl]amino-1-[(furan-2-yl)carbonyl]-1H-pyrazol-3-yl)-1,2-dihydropyridin-2-one]	0.1 to 1 µM	< 0.1 µM
